Experimental data as given in patent US10253002B2, “Compounds and methods of treating infections” (Neoculi Pty Ltd., priority 2013, dated 2019).
Values after ≈ are worked out from the molar mass of the structure shown. Values joined by “and” are separate entries in the source; they are usually repeats but may differ in a detail not shown here. Equal values may be shown once. Marks after values point to notes of the source that are not given here.

Legend:
[1] = tested on: MRSA; experiment: Broth microdilution MIC, Example 7 (NCL812 and analogues); type: cell-based, Staphylococcus aureus; conditions: for activity against MRSA among analogues: MIC testing, two MRSA strains
How it was run: (§1)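 Turbidity read visually and then at 600 nm defined the MIC (μg/ml), comparing drug-containing wells with a growth-control well lacking antimicrobial. Testing followed the CLSI broth microdilution method, in duplicate, using two strains per organism group.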

[2] = tested on: VRE; experiment: as above; type: cell-based, Enterococcus spp.; conditions: for activity against VRE among analogues: MIC testing, two VRE strains
How it was run: as §1

[3] = tested on: Escherichia coli; experiment: as above; type: cell-based; conditions: 24 hours
[4] = tested on: Pseudomonas aeruginosa; experiment: as above; type: cell-based; conditions: 24 hours
[5] = Bioassay ranking of the analogues tested; conditions: M + R (MRSA and VRE combined)
[6] = isolate MRSA 1, 24 hours, 1st and 2nd replicate rows
[7] = isolate MRSA 2, 24 hours, 1st and 2nd replicate rows
[8] = isolate VRE 1, 24 hours, 1st and 2nd replicate rows
[9] = isolate VRE 2, 24 hours, 1st and 2nd replicate rows

| MIC (μg/ml) at 24 hours, MRSA 1 [1, 6] | MIC (μg/ml) at 24 hours, MRSA 2 [1, 7] | MIC (μg/ml) at 24 hours, VRE 1 [2, 8] | MIC (μg/ml) at 24 hours, VRE 2 [2, 9] | MIC (μg/ml) at 24 hours, E. coli ([3]; 1st and 2nd replicate rows) | MIC (μg/ml) at 24 hours, P. aeruginosa ([4]; 1st and 2nd replicate rows) | MIC (μg/ml) at 24 hours, MRSA 1 ([1]; MRSA 1, 24 hours) | MIC (μg/ml) at 24 hours, MRSA 2 ([1]; MRSA 2, 24 hours) | MIC (μg/ml) at 24 hours, VRE 1 ([2]; VRE 1, 24 hours) | MIC (μg/ml) at 24 hours, VRE 2 ([2]; VRE 2, 24 hours) | MIC (μg/ml) at 24 hours, E. coli ([3]; E. coli) | MIC (μg/ml) at 24 hours, P. aeruginosa ([4]; P. aeruginosa) | MIC ([1]; Staphylococcus aureus, MRSA, bioassay ranking, MRSA, read-out: MRSA) | MIC ([2]; Enterococcus, VRE, bioassay ranking, VRE, read-out: VRE) | SMILES | activity against MRSA among analogues [1] | MRSA ([1]; bioassay ranking, MRSA) | activity against VRE among analogues [2] | VRE ([2]; bioassay ranking, VRE) | M + R [5] |
| --- | --- | --- | --- | --- | --- | --- | --- | --- | --- | --- | --- | --- | --- | --- | --- | --- | --- | --- | --- |
| 16 µg/mL | 16 µg/mL | 32 µg/mL | 16 µg/mL | >128 µg/mL | >128 µg/mL | – | – | – | – | – | – | – | – | Cl.N=C(NN=Cc1cccc(F)c1)NN=Cc1cccc(F)c1 [NCL023] | greatest activity | 16 µg/mL | greatest activity | 24 µg/mL | 20 µg/mL |
| – | – | – | – | – | – | 16 µg/mL (≈ 43.6 µM) | 16 µg/mL (≈ 43.6 µM) | 32 µg/mL (≈ 87.1 µM) | 32 µg/mL (≈ 87.1 µM) | >128 µg/mL | >128 µg/mL | – | – | Nc1nc(N/N=C/c2ccc(F)cc2)cc(N/N=C/c2ccc(F)cc2)n1 [NCL220] | greatest activity | 16 µg/mL | greatest activity | 32 µg/mL | 24 µg/mL |
| 8** μg/ml | 8** μg/ml | 8** μg/ml and 16** μg/ml | 8** μg/ml | >128 µg/mL | >128 µg/mL | – | – | – | – | – | – | – | – | Cc1ccc(/C=N/NC(=N)N/N=C/c2ccc(C)cc2)cc1.Cl [NCL038] | greatest activity | 8 µg/mL | greatest activity | 10 µg/mL | 9 µg/mL |
| 4 µg/mL and 2 µg/mL | 2 µg/mL and 4 µg/mL | 4 µg/mL | 4 µg/mL | >128 µg/mL | >128 µg/mL | – | – | – | – | – | – | – | – | Cl.N=C(N/N=C/c1cccc(Cl)c1)N/N=C/c1cccc(Cl)c1 [NCL054] | greatest activity | 3 µg/mL | greatest activity | 4 µg/mL | 3.5 µg/mL |
| – | – | – | – | – | – | – | – | – | – | – | – | – | – | CCC(=NNC(=N)NN=C(CC)c1ccc(Cl)cc1)c1ccc(Cl)cc1.Cl [NCL153] | greatest activity | 24 µg/mL | greatest activity | 8 µg/mL | 16 µg/mL |
| – | – | – | – | – | – | – | – | – | – | – | – | – | – | CC(O)Nc1cc(Cl)ccc1C=NNC(=N)NN=Cc1ccc(Cl)cc1NC(C)O.Cl (stereo not shown) [NCL168] | greatest activity | – | greatest activity | – | 40 µg/mL |
| – | – | – | – | – | – | – | – | – | – | – | – | 4 µg/mL (≈ 9.47 µM) | 4 µg/mL (≈ 9.47 µM) | CC/C(=N\NC(=N)N/N=C(\CC)c1ccc(Cl)cc1O)c1ccc(Cl)cc1O [NCL158] | greatest activity | – | greatest activity | – | 4 µg/mL |
| – | – | – | – | – | – | – | – | – | – | – | – | – | – | Cl.N=C(NN=Cc1ccc2[nH]ccc2c1)NN=Cc1ccc2[nH]ccc2c1 [NCL146] | greatest activity | 12 µg/mL | greatest activity | 16 µg/mL | 14 µg/mL |
| – | – | – | – | – | – | – | – | – | – | – | – | – | – | CC(=NNC(=N)NN=C(C)c1ccc(Cl)cc1O)c1ccc(Cl)cc1O.Cl [NCL173] | greatest activity | 16 µg/mL | greatest activity | 18 µg/mL | 17 µg/mL |
